# Test system: human myeloma cell line MM.1S
# Assay: SILAC acetylated-lysine peptide profiling, HDAC inhibitor vs DMSO (light/heavy ratio)
# Type: cell-based
# Description: An embodiment of the invention comprises utilizing the SILAC method in order to quantitate changes in protein expression between two or more populations of cells. The SILAC method is a technique based on mass spectrometry that detects differences in protein abundance among samples using non-radioactive isotopic labeling. The SILAC method is known in the art, and described in detail in Ong et al., “Stable Isotope Labeling by Amino Acids in Cell Culture, SILAC, as a Simple and Accurate Approach to Expression Proteomics”, Molecular & Cellular Proteomics, vol. 1, pp. 376-386 (2002), which is incorporated herein by reference in its entirety.
# Briefly, the SILAC method involves growing two populations of cells in cell culture. The first population of cells is grown in growth media containing normal amino acids (“normal media”). The second population of cells is grown in media lacking a standard essential amino acid (such as lysine), but is then supplemented with a non-radioactive, isotopically labeled form of that essential amino acid (such as lysine labeled with ^13C atoms, rather than normal ^12C atoms), which is called “heavy media”. When the two populations of cells are each growing in the medium, they incorporate the amino acids into all of their proteins. The growth of cells maintained in the heavy media is no different from that in normal media. All peptides containing the heavy amino acids are heavier than their normal counterparts. The cells from each of the two populations of cells are lysed. The lysates from each of the two cell populations are then combined. The combined cell lysates are then analyzed by mass spectrometry. Pairs of chemically identical peptides of different stable isotope composition can be differentiated in a mass spectrometer due to their difference in mass. The ratio of peak intensities in the mass spectrum for such peptide pairs reflects the abundance ratio for the two proteins.
# This example describes SILAC studies that were performed to compare the effects of three different HDAC inhibitors (Compound A, Compound B, and tubastatin A) to a control on a human multiple myeloma cell line. The HDAC inhibitors were also compared amongst themselves to determine differences in their effects.
# A human myeloma cell line MM.1S was grown using either ^12C (light) or ^13C (heavy) lysine containing culture medium. The “heavy” cells were treated with DMSO as the control, and the “light” cells were treated with a single HDAC inhibitor at 37° C. for 6 hours. The heavy and light cells were lysed, and the lysates were mixed in 1:1 ratio and digested with the protease trypsin. The acetylated lysine containing peptides (due to the action of the HDAC inhibitor) in the digested peptide pool were captured by a non-specific anti-acetylated lysine antibody cocktail (the antibodies identify both light and heavy acetylated peptides), and subjected to mass spectrometry analysis in order to identify thousands of individual peptides.
# Thousands of peptides were identified in pairs (^12C and ^13C) due to their known mass differences. The amino acid sequence and quantitative ratio (Light/Heavy) of a given peptide in two differentially treated cell lysates were then determined and annotated with their possible protein (gene) sources.
# As stated above, three HDAC inhibitors (Compound A, Compound B, and Tubastatin A) were used. Thus, the SILAC method was performed three times, with a different HDAC inhibitor compared to a control each time. Accordingly, there are three pairs of quantitative data in the table below, i.e., Compound A:DMSO, Compound B:DMSO, and Tubastatin A:DMSO. A cut-off of 1.30 fold of change (increase or decrease) was then used to determine “changed” or “+” in the table, and any peptides with a fold of change less than 1.3 fold were determined to be “unchanged” or “0” in the table. Those peptides that were not identified were marked as “NA” in the table. […]
smiles,measurement,setting,value
"O=C(CCCCCCNC(=O)c1cnc(N(c2ccccc2)c2ccccc2)nc1)NO [Compound A, 2-(diphenylamino)-N-(7-(hydroxyamino)-7-oxoheptyl)pyrimidine-5-carboxamide]",L/H ratio of acetylated peptide FIK(ac)IDGK,"SEQ ID NO: 660, 40S ribosomal protein S4 X isoform [71], RPS4X",0.57 log 2
same,L/H ratio of acetylated peptide LAMVK(ac)AEPDVK,"SEQ ID NO: 661, NADH dehydrogenase [ubiquinone] 1 alpha subcomplex subunit 5 [60], NDUFA5",0.58 log 2
same,L/H ratio of acetylated peptide NEK(ac)LFYR,"SEQ ID NO: 662, NADP-dependent malic enzyme mitochondrial [119], ME3",0.58 log 2
same,L/H ratio of acetylated peptide K(ac)FVCPECSK,"SEQ ID NO: 663, Isoform 1 of Transcription factor Sp3 [680], SP3",0.58 log 2
same,L/H ratio of acetylated peptide DLSLDDFK(ac)GK,"SEQ ID NO: 664, Thioredoxin-dependent peroxide reductase mitochondrial [91], PRDX3",0.58 log 2
same,L/H ratio of acetylated peptide DLTDYLMK(ac)ILTER,"SEQ ID NO: 665, Beta-actin-like protein 2 [192], ACTBL2",0.58 log 2
same,L/H ratio of acetylated peptide HGASPELQK(ac)QIR,"SEQ ID NO: 666, Peroxisomal membrane protein 11B [43], PEX11B",0.58 log 2
same,L/H ratio of acetylated peptide LNQLK(ac)PGLQYK,"SEQ ID NO: 667, Isoform 5 of Interleukin enhancer-binding factor 3 [413], ILF3",0.59 log 2
same,L/H ratio of acetylated peptide ISK(ac)LYGDLK,"SEQ ID NO: 668, cDNA FLJ61478 highly similar to Succinate dehydrogenase (ubiquinone) flavoprotein subunit mitochondrial [541], SDHA",0.59 log 2
same,L/H ratio of acetylated peptide LTSDDVK(ac)EQIYK,"SEQ ID NO: 669, 40S ribosomal protein S13 [34], RPS13",0.60 log 2
same,L/H ratio of acetylated peptide SCNCLLLK(ac)[…],"SEQ ID NO: 670, Isoform alpha-enolase of Alpha-enolase [343], ENO1",0.60 log 2
same,L/H ratio of acetylated peptide […](ac)FLIK,"SEQ ID NO: 671, Methyltransferase-like protein 7A [105], METTL7A",0.60 log 2
same,L/H ratio of acetylated peptide […](ac)QLK,"SEQ ID NO: 672, Annexin A6 [442], ANXA6",0.60 log 2
same,L/H ratio of acetylated peptide EVK(ac)LLLLGAGESGK,"SEQ ID NO: 673, Guanine nucleotide-binding protein G(k) subunit alpha [35], GNAI3",0.60 log 2
same,L/H ratio of acetylated peptide […](ac)LR,"SEQ ID NO: 674, Isoform 1 of Vesicle-associated membrane protein-associated protein A [125], VAPA",0.60 log 2
same,L/H ratio of acetylated peptide YNWSAK(ac)AK,"SEQ ID NO: 675, 60S ribosomal protein L37 [52], RPL37",0.60 log 2
same,L/H ratio of acetylated peptide GNK(ac)PWISLPR,"SEQ ID NO: 676, 40S ribosomal protein S4 X isoform [233], RPS4X",0.60 log 2
same,L/H ratio of acetylated peptide […](ac)NK,"SEQ ID NO: 677, Isoform Long of ES1 protein homolog mitochondrial [233], C21orf33",0.61 log 2
same,L/H ratio of acetylated peptide LENDK(ac)SFR,"SEQ ID NO: 678, Isoform 1 of Enoyl-CoA delta isomerase 1 mitochondrial [89], ECI1",0.61 log 2
same,L/H ratio of acetylated peptide LVAMK(ac)FLR,"SEQ ID NO: 679, Isoform 1 of Nucleoside diphosphate kinase B [39], NME1, NME2, NME1-NME2",0.61 log 2
same,L/H ratio of acetylated peptide KVPFGK(ac)TYCCDLK,"SEQ ID NO: 680, Mitochondrial carrier homolog 2 [293], MTCH2",0.62 log 2
same,L/H ratio of acetylated peptide TK(ac)[…],"SEQ ID NO: 681, Isoform 1 of Structural maintenance of chromosomes protein 2 [1160], SMC2",0.62 log 2
same,L/H ratio of acetylated peptide LAQLEEAK(ac)[…],"SEQ ID NO: 682, ATP synthase subunit b mitochondrial [139], ATP5F1",0.63 log 2
same,L/H ratio of acetylated peptide IPVPVQK(ac)NIDQQIK,"SEQ ID NO: 683, Isoform 1 of Pre-mRNA-splicing factor 38B [227], PRPF38B",0.64 log 2
same,L/H ratio of acetylated peptide […](ac)K,"SEQ ID NO: 684, Protein disulfide-isomerase [207], P4HB",0.64 log 2
same,L/H ratio of acetylated peptide VDIRPQLLK(ac)NALQR,"SEQ ID NO: 685, Isoform 1 of Heterochromatin protein 1-binding protein 3 [302], HP1BP3",0.64 log 2
same,L/H ratio of acetylated peptide NQK(ac)LTATTQK,"SEQ ID NO: 686, Nucleoprotein TPR [748], TPR",0.64 log 2
same,L/H ratio of acetylated peptide YYK(ac)NIGLGFK,"SEQ ID NO: 687, 40S ribosomal protein S11 [38], RPS11",0.65 log 2
same,L/H ratio of acetylated peptide SGK(ac)YDLDFK,"SEQ ID NO: 688, Isoform alpha-enolase of Alpha-enolase [256], ENO1",0.65 log 2
same,L/H ratio of acetylated peptide LYGDLK(ac)HLK,"SEQ ID NO: 689, cDNA FLJ61478 highly similar to Succinate dehydrogenase (ubiquinone) flavoprotein subunit mitochondrial [547], SDHA",0.65 log 2
same,L/H ratio of acetylated peptide VENEAEK(ac)DLQCHAPVR,"SEQ ID NO: 690, Isoform 1 of Bromodomain-containing protein 7 [103], BRD7",0.65 log 2
same,L/H ratio of acetylated peptide DSLYK(ac)[…],"SEQ ID NO: 691, Isoform 1 of Clathrin heavy chain 1 [1535], CLTC",0.65 log 2
same,L/H ratio of acetylated peptide TISAK(ac)YAEER,"SEQ ID NO: 692, Isoform 1 of Myosin-9 [1459], MYH9",0.65 log 2
same,L/H ratio of acetylated peptide (ac)ASNK(ac)TTLQK,"SEQ ID NO: 693, Chromobox protein homolog 3 [5], CBX3",0.66 log 2
same,L/H ratio of acetylated peptide GYLADPAK(ac)FPEAR,"SEQ ID NO: 694, 39S ribosomal protein L15 mitochondrial [228], MRPL15",0.66 log 2
same,L/H ratio of acetylated peptide SCEIK(ac)FLTFK,"SEQ ID NO: 695, Isoform 2 of 39S ribosomal protein L39 mitochondrial [126], MRPL39",0.66 log 2

# From patent US20140357512A1, “HISTONE DEACETYLASE (HDAC) BIOMARKERS IN MULTIPLE MYELOMA” (priority 2013, published 2014)
